Assays:
rice = assay: Test B flood test rice; assay type: in vivo, Oryza sativa
Method in brief: (§1)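 Flood test on plants grown to the 2-leaf stage; treated plants kept in greenhouse twelve to sixteen days, then visually rated against controls on a 0 (no effect) to 10 (complete control) scale.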

rape = assay: Test B pre/postemergence rape; assay type: in vivo, Brassica napus
Method in brief: (§2)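 Response is a visual 0-to-10 score relative to untreated plants, where 0 means no effect and 10 means complete control, taken twelve to sixteen days after application. Treatments went onto soil at planting and onto foliage of 1- to 4-leaf plants, using a surfactant-containing non-phytotoxic solvent.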

wild oat = assay: Test B pre/postemergence wild oat; assay type: in vivo, Avena fatua
Method in brief: as §2

pigweed = assay: Test B pre/postemergence pigweed; assay type: in vivo, Amaranthus retroflexus
Method in brief: as §2

cocklebur = assay: Test B pre/postemergence cocklebur; assay type: in vivo, Xanthium strumarium
Method in brief: as §2

blackgrass = assay: Test B pre/postemergence blackgrass; assay type: in vivo, Alopecurus myosuroides
Method in brief: as §2

sugar beet = assay: Test B pre/postemergence sugar beet; assay type: in vivo, Beta vulgaris
Method in brief: as §2

soybean = assay: Test B pre/postemergence soybean; assay type: in vivo, Glycine max
Method in brief: as §2

crabgrass = assay: Test B pre/postemergence crabgrass; assay type: in vivo, Digitaria sanguinalis
Method in brief: as §2

wheat = assay: Test B pre/postemergence wheat; assay type: in vivo, Triticum aestivum
Method in brief: as §2

corn = assay: Test B pre/postemergence corn; assay type: in vivo, Zea mays
Method in brief: as §2

duck salad = assay: Test B flood test duck salad; assay type: in vivo, Heteranthera limosa
Method in brief: as §1

velvetleaf = assay: Test B pre/postemergence velvetleaf; assay type: in vivo, Abutilon theophrasti
Method in brief: as §2

morningglory = assay: Test B pre/postemergence morningglory; assay type: in vivo, Ipomoea hederacea
Method in brief: as §2

surinam grass = assay: Test B pre/postemergence surinam grass; assay type: in vivo, Brachiaria decumbens
Method in brief: as §2

giant foxtail = assay: Test B pre/postemergence giant foxtail; assay type: in vivo, Setaria faberii
Method in brief: as §2

purple nutsedge = assay: Test B pre/postemergence purple nutsedge; assay type: in vivo, Cyperus rotundus
Method in brief: as §2

bamyardgrass = assay: Test B flood test barnyardgrass; assay type: in vivo, Echinochloa crus-galli
Method in brief: as §1

smallflower flatsedge = assay: Test B flood test smallflower flatsedge; assay type: in vivo, Cyperus difformis
Method in brief: as §1

bedstraw = assay: Test B pre/postemergence bedstraw; assay type: in vivo, Galium aparine; settings: Preemergence; for Bedstraw plant response rating: scale of 0 to 10 where 0 is no effect and 10 is complete control
Method in brief: as §2

[1] = Pre-emergence, Rate 1000 g/ha, scale 0 to 10 (0 no effect, 10 complete control)
[2] = Rate 125 g/ha, under heading Pre-emergence, flood test species, visual evaluation after twelve to sixteen days
[3] = Rate 250 g/ha, Pre-emergence (flood test species), scale 0 to 10, 0 is no effect, 10 is complete control
[4] = Rate 500 g/ha, Pre-emergence section of Table B, 0 to 10 scale (0 no effect, 10 complete control)
[5] = Postemergence, Rate 125 g/ha, scale of 0 to 10 where 0 is no effect and 10 is complete control
[6] = Postemergence, Rate 250 g/ha, scale of 0 to 10, 0 is no effect, 10 is complete control
[7] = Postemergence, Rate 500 g/ha, scale of 0 to 10 where 0 is no effect and 10 is complete control
[8] = Postemergence, Rate 1000 g/ha, scale 0 to 10 (0 no effect, 10 complete control)
[9] = Preemergence, Rate 125 g/ha, scale of 0 to 10 where 0 is no effect and 10 is complete control
[10] = Preemergence, Rate 500 g/ha, scale of 0 to 10 where 0 is no effect and 10 is complete control
[11] = Rate 1000 g/ha, Preemergence, scale 0 to 10 (0 no effect, 10 complete control)

CCOP(=O)(Cn1c(=O)on(C(=O)N(c2ccc(Cl)cc2)C(C)C)c1=O)OCC [Compound 599]
Rice plant response rating (rice; [1]): 0
Rice plant response rating (0 to 10 scale, 0 is no effect, 10 is complete control) (rice; [2]): 0
Rice plant response rating (rice; [3]): 0
Rice plant response rating (rice; [4]): 0
Plant response rating, Rape (rape; [5]): 0
Rape plant response rating (rape; [6]): 0
Plant response rating, Rape (rape; [7]): 0
Rape plant response rating (rape; [8]): 0
Rape plant response rating (rape; [9]): 0
Plant response rating, Rape (rape; [10]): 0
Plant response rating, Rape (rape; [11]): 3
Plant response rating, Wild oats (wild oat; [5]): 0
Wild oats plant response rating (wild oat; [6]): 0
Plant response rating, Wild oats (wild oat; [7]): 0
Wild oats plant response rating (wild oat; [8]): 0
Wild oats plant response rating (wild oat; [9]): 0
Plant response rating, Wild oats (wild oat; [10]): 0
Plant response rating, Wild oats (wild oat; [11]): 0
Plant response rating, Redroot pigweed (pigweed; [5]): 0
Redroot pigweed plant response rating (pigweed; [6]): 0
Plant response rating, Redroot pigweed (pigweed; [7]): 0
Redroot pigweed plant response rating (pigweed; [8]): 0
Redroot pigweed plant response rating (pigweed; [9]): 0
Plant response rating, Redroot pigweed (pigweed; [10]): 0
Plant response rating, Redroot pigweed (pigweed; [11]): 4
Plant response rating, Cocklebur (cocklebur; [5]): 0
Cocklebur plant response rating (cocklebur; [6]): 0
Plant response rating, Cocklebur (cocklebur; [7]): 0
Cocklebur plant response rating (cocklebur; [8]): 0
Cocklebur plant response rating (cocklebur; [9]): 0
Cocklebur plant response rating (0 to 10 scale) (cocklebur; Preemergence, Rate 250 g/ha): 0
Plant response rating, Cocklebur (cocklebur; [10]): 0
Plant response rating, Cocklebur (cocklebur; [11]): 3
Plant response rating, Blackgrass (blackgrass; [5]): 0
Blackgrass plant response rating (blackgrass; [6]): 0
Plant response rating, Blackgrass (blackgrass; [7]): 0
Blackgrass plant response rating (blackgrass; [8]): 6
Blackgrass plant response rating (blackgrass; [9]): 0
Blackgrass plant response rating (0 to 10 scale) (blackgrass; Preemergence, Rate 250 g/ha): 3
Blackgrass plant response rating (blackgrass; [10]): 6
Plant response rating, Blackgrass (blackgrass; [11]): 8
Plant response rating, Sugarbeets (sugar beet; [5]): 0
Sugarbeets plant response rating (sugar beet; [6]): 0
Plant response rating, Sugarbeets (sugar beet; [7]): 0
Sugarbeets plant response rating (sugar beet; [8]): 0
Sugarbeets plant response rating (sugar beet; [9]): 0
Plant response rating, Sugarbeets (sugar beet; [11]): 2
Plant response rating, Soybean (soybean; [5]): 2
Soybean plant response rating (soybean; [6]): 2
Plant response rating, Soybean (soybean; [7]): 2
Soybean plant response rating (soybean; [8]): 4
Soybean plant response rating (soybean; [9]): 0
Plant response rating, Soybean (soybean; [10]): 0
Plant response rating, Soybean (soybean; [11]): 0
Plant response rating, Crabgrass (crabgrass; [5]): 0
Crabgrass plant response rating (crabgrass; [6]): 0
Plant response rating, Crabgrass (crabgrass; [7]): 0
Crabgrass plant response rating (crabgrass; [8]): 0
Crabgrass plant response rating (crabgrass; [9]): 3
Plant response rating, Crabgrass (crabgrass; [10]): 8
Plant response rating, Crabgrass (crabgrass; [11]): 8
Plant response rating, Wheat (wheat; [5]): 0
Wheat plant response rating (wheat; [6]): 0
Plant response rating, Wheat (wheat; [7]): 0
Wheat plant response rating (wheat; [8]): 0
Wheat plant response rating (wheat; [9]): 0
Plant response rating, Wheat (wheat; [10]): 0
Plant response rating, Wheat (wheat; [11]): 0
Plant response rating, Corn (corn; [5]): 0
Corn plant response rating (corn; [6]): 0
Plant response rating, Corn (corn; [7]): 0
Corn plant response rating (corn; [8]): 0
Corn plant response rating (corn; [9]): 0
Corn plant response rating (0 to 10 scale) (corn; Preemergence, Rate 250 g/ha): 0
Plant response rating, Corn (corn; [10]): 0
Plant response rating, Corn (corn; [11]): 0
Ducksalad plant response rating (duck salad; [1]): 0
Ducksalad plant response rating (0 to 10 scale, 0 is no effect, 10 is complete control) (duck salad; [2]): 0
Ducksalad plant response rating (duck salad; [3]): 0
Ducksalad plant response rating (duck salad; [4]): 0
Plant response rating, Velvetleaf (velvetleaf; [5]): 0
Velvetleaf plant response rating (velvetleaf; [6]): 0
Plant response rating, Velvetleaf (velvetleaf; [7]): 0
Velvetleaf plant response rating (velvetleaf; [8]): 3
Velvetleaf plant response rating (velvetleaf; [9]): 0
Plant response rating, Velvetleaf (velvetleaf; [10]): 0
Plant response rating, Velvetleaf (velvetleaf; [11]): 0
Plant response rating, Morningglory (morningglory; [5]): 1
Morningglory plant response rating (morningglory; [6]): 1
Plant response rating, Morningglory (morningglory; [7]): 6
Morningglory plant response rating (morningglory; [8]): 6
Morningglory plant response rating (morningglory; [9]): 0
Plant response rating, Morningglory (morningglory; [10]): 0
Plant response rating, Morningglory (morningglory; [11]): 0
Plant response rating, B. signalgrass (surinam grass; [5]): 0
B. signalgrass plant response rating (surinam grass; [6]): 0
Plant response rating, B. signalgrass (surinam grass; [7]): 0
B. signalgrass plant response rating (surinam grass; [8]): 0
B. signalgrass plant response rating (surinam grass; [9]): 2
B. signalgrass plant response rating (0 to 10 scale, 0 is no effect, 10 is complete control) (surinam grass; Preemergence, Rate 250 g/ha): 2
B. signalgrass plant response rating (surinam grass; [10]): 3
Plant response rating, B. signalgrass (surinam grass; [11]): 3
Plant response rating, Giant foxtail (giant foxtail; [5]): 0
Giant foxtail plant response rating (giant foxtail; [6]): 0
Plant response rating, Giant foxtail (giant foxtail; [7]): 0
Giant foxtail plant response rating (giant foxtail; [8]): 4
Giant foxtail plant response rating (giant foxtail; [9]): 9
Plant response rating, Giant foxtail (giant foxtail; [10]): 10
Plant response rating, Giant foxtail (giant foxtail; [11]): 10
Plant response rating, Nutsedge (purple nutsedge; [7]): 0
Nutsedge plant response rating (purple nutsedge; [8]): 0
Nutsedge plant response rating (purple nutsedge; [9]): 0
Plant response rating, Nutsedge (purple nutsedge; [10]): 0
Plant response rating, Nutsedge (purple nutsedge; [11]): 0
Barnyardgrass plant response rating (bamyardgrass; [1]): 0
Barnyardgrass plant response rating (0 to 10 scale, 0 is no effect, 10 is complete control) (bamyardgrass; [2]): 0
Barnyardgrass plant response rating (bamyardgrass; [3]): 0
Barnyardgrass plant response rating (bamyardgrass; [4]): 0
S. Flatsedge plant response rating (smallflower flatsedge; [1]): 0
S. Flatsedge plant response rating (0 to 10 scale, 0 is no effect, 10 is complete control) (smallflower flatsedge; [2]): 0
S. Flatsedge plant response rating (smallflower flatsedge; [3]): 0
S. Flatsedge plant response rating (smallflower flatsedge; [4]): 0
Bedstraw plant response rating (bedstraw; Rate 125 g/ha): 0
Bedstraw plant response rating (0 to 10 scale) (bedstraw; Rate 250 g/ha): 0
Bedstraw plant response rating (bedstraw; Rate 500 g/ha): 0
Plant response rating, Bedstraw (bedstraw; Rate 1000 g/ha, scale 0 to 10 (0 no effect, 10 complete control)): 8

From US6737383B1, “Herbicidal oxadiazolidines” (priority 1999, dated 2004)
